Measurements as given in US20140296216A1, “PYRIMIDO[4,5-D]PYRIMIDINYL COMPOUNDS, PHARMACEUTICAL COMPOSITIONS AND USES THEREOF” (GUANGZHOU INSTITUTE OF BIOMEDICINE AND HEALTH, CHINESE …, priority 2011, published 2014).
pIC50: −log10 of the molar value.

How the values were obtained:
[1] = tested on: HCC827 (lung cancer cells, EGFR E746-A750 deletion); assay: Cell proliferation by MTT, HCC827; assay type: cell-based; details: Homo sapiens, HCC827, read-out: HCC827 50% inhibitory concentration (IC50), 72 h
EGFRWT = EGFRWT (Homo sapiens, UniProt P00533); assay: In vitro enzymatic activity assay (Z'-LYTE), wild type EGFR; assay type: biochemical; details: Z'-LYTE FRET peptide assay; read-out: EGFRWT kinase activity (IC50)
Sequence of EGFRWT (P00533 25-1210): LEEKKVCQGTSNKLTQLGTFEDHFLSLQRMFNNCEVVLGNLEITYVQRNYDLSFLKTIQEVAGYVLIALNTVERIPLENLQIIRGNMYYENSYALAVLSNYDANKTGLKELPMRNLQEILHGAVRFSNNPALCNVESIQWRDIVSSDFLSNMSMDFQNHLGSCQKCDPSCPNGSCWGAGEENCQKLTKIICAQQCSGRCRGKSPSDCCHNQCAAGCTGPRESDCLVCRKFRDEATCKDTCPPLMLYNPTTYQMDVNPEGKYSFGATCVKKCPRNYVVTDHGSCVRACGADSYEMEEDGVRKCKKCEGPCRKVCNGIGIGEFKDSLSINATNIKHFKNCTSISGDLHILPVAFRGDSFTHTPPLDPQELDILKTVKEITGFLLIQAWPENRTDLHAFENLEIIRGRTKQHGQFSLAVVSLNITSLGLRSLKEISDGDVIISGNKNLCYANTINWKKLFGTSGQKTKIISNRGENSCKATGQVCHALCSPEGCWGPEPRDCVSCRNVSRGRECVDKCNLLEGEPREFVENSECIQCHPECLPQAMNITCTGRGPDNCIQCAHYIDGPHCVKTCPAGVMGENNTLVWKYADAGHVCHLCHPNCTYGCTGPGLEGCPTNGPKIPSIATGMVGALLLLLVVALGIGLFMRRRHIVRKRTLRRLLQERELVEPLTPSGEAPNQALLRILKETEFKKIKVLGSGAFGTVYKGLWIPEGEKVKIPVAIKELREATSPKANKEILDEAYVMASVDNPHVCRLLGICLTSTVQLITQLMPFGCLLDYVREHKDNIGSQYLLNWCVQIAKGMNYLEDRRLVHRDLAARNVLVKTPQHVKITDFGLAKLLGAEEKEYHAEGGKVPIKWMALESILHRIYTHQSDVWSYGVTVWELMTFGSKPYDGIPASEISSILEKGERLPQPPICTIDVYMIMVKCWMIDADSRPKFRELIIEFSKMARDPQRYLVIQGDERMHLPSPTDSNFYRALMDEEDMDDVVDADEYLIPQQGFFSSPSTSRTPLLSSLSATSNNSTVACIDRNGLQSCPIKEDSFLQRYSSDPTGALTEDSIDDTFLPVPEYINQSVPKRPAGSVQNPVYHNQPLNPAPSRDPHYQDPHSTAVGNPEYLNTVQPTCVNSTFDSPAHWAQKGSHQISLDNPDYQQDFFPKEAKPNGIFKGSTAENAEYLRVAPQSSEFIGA
Excerpt: (§1) In vitro enzymatic activity assay: using Z′-LYTE™ technology (detect fluorescence, coupled-enzyme format, based on the differential sensitivity of phosphorylated and non-phosphorylated peptides to proteolytic cleavage), based on FRET, using Z′ LYTE™ FRET peptide substrate, detect the activity of compounds against enzymatic. […] After one hour, site specific protease which can recognize and cleaves non-phosphorylated FRET-peptide. After another hour, using an excitation wavelength of 400 nm excites, then detect the […] at 445 nm and 520 nm.

[2] = tested on: H1975 (lung cancer cells, EGFR L858R&T790M); assay: Cell proliferation by MTT, H1975; assay type: cell-based; details: Homo sapiens, NCI-H1975, read-out: H1975 50% inhibitory concentration (IC50), 72 h
EGFR T790M kinase = target: T1, EGFR T790M kinase (Homo sapiens, UniProt P00533, T790M); assay: In vitro enzymatic activity assay (Z'-LYTE), EGFR T790M; assay type: biochemical; details: Z'-LYTE FRET peptide assay; read-out: EGFRT790M kinase activity (IC50)
T1 construct: purchased invitrogen PV4803
T1 sequence (P00533 25-1210 T790M): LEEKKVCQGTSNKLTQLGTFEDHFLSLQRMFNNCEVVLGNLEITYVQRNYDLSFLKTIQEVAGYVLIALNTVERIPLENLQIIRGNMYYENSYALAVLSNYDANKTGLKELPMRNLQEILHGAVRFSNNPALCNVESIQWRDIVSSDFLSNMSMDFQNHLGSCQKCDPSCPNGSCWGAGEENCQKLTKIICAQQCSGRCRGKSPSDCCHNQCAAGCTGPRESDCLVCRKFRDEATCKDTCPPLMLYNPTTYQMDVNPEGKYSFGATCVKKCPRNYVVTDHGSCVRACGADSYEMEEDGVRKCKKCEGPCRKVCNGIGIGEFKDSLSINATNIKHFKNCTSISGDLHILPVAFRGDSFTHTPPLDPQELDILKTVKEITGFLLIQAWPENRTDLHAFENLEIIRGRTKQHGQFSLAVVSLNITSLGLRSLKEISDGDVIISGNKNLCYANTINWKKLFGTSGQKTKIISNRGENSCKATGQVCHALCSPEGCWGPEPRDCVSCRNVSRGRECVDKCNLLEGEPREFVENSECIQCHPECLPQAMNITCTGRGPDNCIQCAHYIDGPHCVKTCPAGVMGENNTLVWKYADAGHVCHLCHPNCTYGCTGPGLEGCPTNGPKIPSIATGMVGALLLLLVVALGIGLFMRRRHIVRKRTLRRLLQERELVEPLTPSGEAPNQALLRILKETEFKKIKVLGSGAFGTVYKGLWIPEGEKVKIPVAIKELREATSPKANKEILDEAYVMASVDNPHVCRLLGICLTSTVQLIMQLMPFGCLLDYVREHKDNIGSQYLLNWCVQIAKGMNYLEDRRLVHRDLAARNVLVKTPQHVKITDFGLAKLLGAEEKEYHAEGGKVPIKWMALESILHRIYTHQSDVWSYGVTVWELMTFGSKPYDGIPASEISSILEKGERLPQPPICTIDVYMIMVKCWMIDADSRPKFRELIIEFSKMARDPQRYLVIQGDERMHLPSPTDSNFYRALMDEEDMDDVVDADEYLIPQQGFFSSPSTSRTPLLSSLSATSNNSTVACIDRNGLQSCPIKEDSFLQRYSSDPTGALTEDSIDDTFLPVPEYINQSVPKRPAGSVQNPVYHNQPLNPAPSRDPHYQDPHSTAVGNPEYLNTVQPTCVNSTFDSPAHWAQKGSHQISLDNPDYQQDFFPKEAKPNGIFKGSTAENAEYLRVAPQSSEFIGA
Excerpt: as §1

EGFRL858R + T790M = EGFRL858R + T790M (Homo sapiens, UniProt P00533, L858R/T790M); assay: In vitro enzymatic activity assay (Z'-LYTE), EGFR L858R + T790M; assay type: biochemical; details: Z'-LYTE FRET peptide assay; read-out: EGFRL858R + T790M kinase activity (IC50)
Sequence of EGFRL858R + T790M (P00533 25-1210 T790M/L858R): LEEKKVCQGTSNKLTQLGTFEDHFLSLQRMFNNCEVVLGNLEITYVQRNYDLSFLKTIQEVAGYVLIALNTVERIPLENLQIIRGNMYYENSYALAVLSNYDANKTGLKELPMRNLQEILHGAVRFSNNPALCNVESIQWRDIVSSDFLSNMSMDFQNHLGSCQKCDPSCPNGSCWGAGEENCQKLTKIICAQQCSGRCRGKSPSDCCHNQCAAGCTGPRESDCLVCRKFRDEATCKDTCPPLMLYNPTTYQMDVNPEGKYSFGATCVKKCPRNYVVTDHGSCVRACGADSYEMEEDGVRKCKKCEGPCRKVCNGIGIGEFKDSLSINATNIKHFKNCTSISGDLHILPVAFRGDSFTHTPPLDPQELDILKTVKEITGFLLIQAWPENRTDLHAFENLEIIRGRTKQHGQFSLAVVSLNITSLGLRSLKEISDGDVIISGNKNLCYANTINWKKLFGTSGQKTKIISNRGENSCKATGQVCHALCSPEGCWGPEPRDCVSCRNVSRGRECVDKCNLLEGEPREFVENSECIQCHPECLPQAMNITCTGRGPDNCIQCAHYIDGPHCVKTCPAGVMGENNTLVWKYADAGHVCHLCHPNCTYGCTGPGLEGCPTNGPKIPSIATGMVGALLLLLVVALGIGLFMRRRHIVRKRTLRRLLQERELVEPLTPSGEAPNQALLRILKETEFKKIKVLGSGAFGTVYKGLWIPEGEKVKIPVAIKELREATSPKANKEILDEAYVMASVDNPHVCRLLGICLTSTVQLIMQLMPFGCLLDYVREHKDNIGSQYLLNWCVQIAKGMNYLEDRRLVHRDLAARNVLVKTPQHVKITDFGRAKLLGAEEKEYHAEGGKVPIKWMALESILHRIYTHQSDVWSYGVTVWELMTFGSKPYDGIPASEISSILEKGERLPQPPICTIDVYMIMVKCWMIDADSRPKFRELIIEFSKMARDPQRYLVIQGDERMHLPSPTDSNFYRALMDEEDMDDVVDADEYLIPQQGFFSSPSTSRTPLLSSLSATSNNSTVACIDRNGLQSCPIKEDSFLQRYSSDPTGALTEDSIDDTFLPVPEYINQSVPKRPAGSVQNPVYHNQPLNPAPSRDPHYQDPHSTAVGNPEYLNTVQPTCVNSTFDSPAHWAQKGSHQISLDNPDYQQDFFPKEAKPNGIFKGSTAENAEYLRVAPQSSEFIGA
Excerpt: as §1

[3] = tested on: NCI-H820 (lung cancer cells); assay: Cell proliferation by MTT, NCI-H820; assay type: cell-based; details: NCI-H820, read-out: NCI-H820 50% inhibitory concentration (IC50), 72 h
EGFRL858R = EGFRL858R (Homo sapiens, UniProt P00533, L858R); assay: In vitro enzymatic activity assay (Z'-LYTE), EGFR L858R; assay type: biochemical; details: Z'-LYTE FRET peptide assay; read-out: EGFRL858R kinase activity (IC50)
Excerpt: as §1

[4] = tested on: A431 (Human epidermal carcinoma, EGFR high expression); assay: Cell proliferation by MTT, A431; assay type: cell-based; details: A-431, read-out: A431 50% inhibitory concentration (IC50), 72 h
EGFRL861Q = EGFRL861Q (Homo sapiens, UniProt P00533, L861Q); assay: In vitro enzymatic activity assay (Z'-LYTE), EGFR L861Q; assay type: biochemical; details: Z'-LYTE FRET peptide assay; read-out: EGFRL861Q kinase activity (IC50)
Sequence of EGFRL861Q (P00533 25-1210 L861Q): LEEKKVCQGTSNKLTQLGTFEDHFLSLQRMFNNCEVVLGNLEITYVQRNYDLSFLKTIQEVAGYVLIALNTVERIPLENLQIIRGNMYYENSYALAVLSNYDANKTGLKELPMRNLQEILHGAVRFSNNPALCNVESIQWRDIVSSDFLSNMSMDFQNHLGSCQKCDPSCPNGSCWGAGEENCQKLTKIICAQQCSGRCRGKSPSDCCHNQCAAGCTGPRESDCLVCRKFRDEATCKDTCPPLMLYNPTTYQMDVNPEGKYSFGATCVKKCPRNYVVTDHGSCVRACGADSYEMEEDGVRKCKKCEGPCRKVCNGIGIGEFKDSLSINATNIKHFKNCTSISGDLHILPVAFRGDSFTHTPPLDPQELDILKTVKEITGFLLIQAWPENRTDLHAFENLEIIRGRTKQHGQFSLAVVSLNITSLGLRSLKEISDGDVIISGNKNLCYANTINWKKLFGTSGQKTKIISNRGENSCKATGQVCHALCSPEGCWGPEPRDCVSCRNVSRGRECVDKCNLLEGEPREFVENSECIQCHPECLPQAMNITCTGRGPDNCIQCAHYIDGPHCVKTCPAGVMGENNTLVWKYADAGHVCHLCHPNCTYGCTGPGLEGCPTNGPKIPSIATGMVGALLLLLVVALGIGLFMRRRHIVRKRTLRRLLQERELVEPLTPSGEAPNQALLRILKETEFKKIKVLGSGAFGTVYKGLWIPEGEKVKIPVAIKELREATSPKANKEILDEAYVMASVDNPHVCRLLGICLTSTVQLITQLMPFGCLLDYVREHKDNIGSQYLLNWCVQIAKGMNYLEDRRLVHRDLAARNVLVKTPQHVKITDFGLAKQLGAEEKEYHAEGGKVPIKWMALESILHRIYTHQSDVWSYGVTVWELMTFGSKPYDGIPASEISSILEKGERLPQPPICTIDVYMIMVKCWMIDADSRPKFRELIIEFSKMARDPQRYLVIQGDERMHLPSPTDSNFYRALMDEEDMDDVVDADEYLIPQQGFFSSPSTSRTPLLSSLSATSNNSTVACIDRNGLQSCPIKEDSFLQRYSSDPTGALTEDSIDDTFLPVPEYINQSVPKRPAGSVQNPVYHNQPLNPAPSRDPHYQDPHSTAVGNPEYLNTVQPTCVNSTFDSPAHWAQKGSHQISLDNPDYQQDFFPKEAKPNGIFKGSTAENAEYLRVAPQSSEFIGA
Excerpt: as §1

| SMILES | pIC50 [1] | pIC50 (EGFRWT) | pIC50 [2] | pIC50 (EGFR T790M kinase) | pIC50 (EGFRL858R + T790M) | pIC50 [3] | pIC50 (EGFRL858R) | pIC50 [4] | pIC50 (EGFRL861Q) |
| --- | --- | --- | --- | --- | --- | --- | --- | --- | --- |
| C=CC(=O)Nc1cccc(N2C(=O)N(C)Cc3cnc(Nc4ccc(N5CCOCC5)cc4)nc32)c1 [Compound X007, N-(3-(3-methyl-7-(4-morpholinophenylamino)-2-oxo-3,4-dihydropyrimido[4,5-d]pyrimidin-1(2H)-yl)phenyl)acrylamide] | 6.59 | ≥ 8.00 | 6.16 | ≥ 8.00 | ≥ 8.00 | < 4.00 | ≥ 8.00 | 5.46 | ≥ 8.00 |
| C=CC(=O)Nc1cccc(N2C(=O)N(C)Cc3cnc(Nc4ccc(N5CCN(C)CC5)cc4OC(C)C)nc32)c1 [Compound X006, N-(3-(7-(2-isopropoxy-4-(4-methylpiperazin-1-yl)phenylamino)-3-methyl-2-oxo-3,4-dihydropyrimido[4,5-d]pyrimidin-1(2H)-yl)phenyl)acrylamide] | 6.97 | ≥ 8.00 | 6.27 | 7.00 to 8.00 | 7.00 to 8.00 | < 4.00 | 7.00 to 8.00 | 4.20 | 7.00 to 8.00 |
| C=CC(=O)Nc1cccc(N2C(=O)N(C)Cc3cnc(Nc4ccc(N5CCCCC5)cc4OC)nc32)c1 [C-EGF11, N-(3-(7-(2-methoxy-4-(piperidin-1-yl)phenylamino)-3-methyl-2-oxo-3,4-dihydropyrimido[4,5-d]pyrimidin-1(2H)-yl)phenyl)acrylamide] | 6.51 | 7.00 to 8.00 | 5.59 | 6.00 to 7.00 | 7.00 to 8.00 | < 4.00 | 7.00 to 8.00 | 4.75 | ≥ 8.00 |
| C=CC(=O)Nc1cccc(N2C(=O)N(C)Cc3cnc(Nc4ccc(N5CCN(C)CC5)cc4F)nc32)c1 [C-EGF18, N-(3-(7-(2-fluoro-4-(4-methylpiperazin-1-yl)phenylamino)-3-methyl-2-oxo-3,4-dihydropyrimido[4,5-d]pyrimidin-1(2H)-yl)phenyl)acrylamide] | < 4.00 | 5.00 to 6.00 | < 4.00 | ≤ 5.00 | 5.00 to 6.00 | 5.31 | ≤ 5.00 | < 4.00 | ≤ 6.00 |
| C=CC(=O)Nc1cccc(N2C(=O)N(C)Cc3cnc(Nc4ccc(N5CCN(C)CC5)cc4C)nc32)c1 [Compound X010, N-(3-(3-methyl-7-(2-methyl-4-(4-methylpiperazin-1-yl)phenylamino)-2-oxo-3,4-dihydropyrimido[4,5-d]pyrimidin-1(2H)-yl)phenyl)acrylamide] | 7.28 | ≥ 8.00 | 6.76 | ≥ 8.00 | ≥ 8.00 | 4.38 | ≥ 8.00 | 5.84 | ≥ 8.00 |
| C=CC(=O)Nc1cccc(N2C(=O)N(C)Cc3cnc(Nc4ccc(N5CCC(N6CCN(C)CC6)CC5)cc4OC)nc32)c1 [C-EGF14, N-(3-(7-(2-methoxy-4-(4-(4-methylpiperazin-1-yl)piperidin-1-yl)phenylamino)-3-methyl-2-oxo-3,4-dihydropyrimido[4,5-d]pyrimidin-1(2H)-yl)phenyl)acrylamide] | 6.73 | ≥ 8.00 | 5.91 | 7.00 to 8.00 | 7.00 to 8.00 | < 4.00 | ≥ 8.00 | < 4.00 | ≥ 8.00 |
| C=CC(=O)Nc1cccc(N2C(=O)N(C)Cc3cnc(Nc4ccc(N5CCC(N(C)C)CC5)cc4OC)nc32)c1 [C-EGF13, N-(3-(7-(4-(4-(dimethylamino)piperidin-1-yl)-2-methoxyphenylamino)-3-methyl-2-oxo-3,4-dihydropyrimido[4,5-d]pyrimidin-1(2H)-yl)phenyl)acrylamide] | 6.70 | ≥ 8.00 | 6.25 | ≥ 8.00 | ≥ 8.00 | < 4.00 | ≥ 8.00 | < 4.00 | ≥ 8.00 |
| C=CC(=O)Nc1cccc(N2C(=O)N(C)Cc3cnc(Nc4ccc(N5CCSCC5)cc4OC)nc32)c1 [C-EGF09, N-(3-(7-(2-methoxy-4-thiomorpholinophenylamino)-3-methyl-2-oxo-3,4-dihydropyrimido[4,5-d]pyrimidin-1(2H)-yl)phenyl)acrylamide] | 6.67 | 7.00 to 8.00 | 6.42 | 7.00 to 8.00 | 7.00 to 8.00 | < 4.00 | 7.00 to 8.00 | 4.97 | ≥ 8.00 |

Next, values leading:

| pIC50 [1] | pIC50 (EGFRWT) | pIC50 [2] | pIC50 (EGFR T790M kinase) | pIC50 (EGFRL858R + T790M) | pIC50 [3] | pIC50 (EGFRL858R) | pIC50 [4] | pIC50 (EGFRL861Q) | SMILES |
| --- | --- | --- | --- | --- | --- | --- | --- | --- | --- |
| 6.81 | ≥ 8.00 | 6.38 | ≥ 8.00 | ≥ 8.00 | < 4.00 | ≥ 8.00 | 5.10 | ≥ 8.00 | C=CC(=O)Nc1cccc(N2C(=O)N(C)Cc3cnc(Nc4ccc(N5CCCCC5)cc4)nc32)c1 [Compound X002, N-(3-(3-methyl-2-oxo-7-(4-(piperidin-1-yl)phenylamino)-3,4-dihydropyrimido[4,5-d]pyrimidin-1(2H)-yl)phenyl)acrylamide] |
| 8.52 | ≥ 8.00 | 6.15 | 7.00 to 8.00 | ≥ 8.00 | < 4.00 | ≥ 8.00 | < 5.30 | ≥ 8.00 | C=CC(=O)Nc1cccc(N2C(=O)N(C)Cc3cnc(Nc4ccc(N5CCN(C)CC5)cc4OCC)nc32)c1 [Compound X009, N-(3-(7-(2-ethoxy-4-(4-methylpiperazin-1-yl)phenylamino)-3-methyl-2-oxo-3,4-dihydropyrimido[4,5-d]pyrimidin-1(2H)-yl)phenyl)acrylamide] |
| 9.70 | ≥ 8.00 | 6.89 | ≥ 8.00 | ≥ 8.00 | < 4.00 | ≥ 8.00 | 4.61 | ≥ 8.00 | C=CC(=O)Nc1cccc(N2C(=O)N(C(C)C)Cc3cnc(Nc4ccc(N5CCN(C)CC5)cc4OC)nc32)c1 [C-EGF24, N-(3-(3-isopropyl-7-(2-methoxy-4-(4-methylpiperazin-1-yl)phenylamino)-2-oxo-3,4-dihydropyrimido[4,5-d]pyrimidin-1(2H)-yl)phenyl)acrylamide] |
| 7.55 | ≥ 8.00 | 6.67 | ≥ 8.00 | 7.00 to 8.00 | < 4.00 | 7.00 to 8.00 | 5.80 | 7.00 to 8.00 | C=CC(=O)Nc1cccc(N2C(=O)N(C)Cc3cnc(Nc4ccccc4)nc32)c1 [C-EGF10, N-(3-(3-methyl-2-oxo-7-(phenylamino)-3,4-dihydropyrimido[4,5-d]pyrimidin-1(2H)-yl)phenyl)acrylamide] |
| 4.92 | 6.00 to 7.00 | 4.65 | ≤ 5.00 | 6.00 to 7.00 | < 4.00 | 6.00 to 7.00 | < 4.00 | 5.00 to 6.00 | C=CC(=O)Nc1cccc(N2C(=O)N(C)Cc3cnc(NC)nc32)c1 [C-EGF21, N-(3-(3-methyl-7-(methylamino)-2-oxo-3,4-dihydropyrimido[4,5-d]pyrimidin-1 (2H)-yl)phenyl)acrylamide] |
| 7.64 | ≥ 8.00 | 6.48 | ≥ 8.00 | ≥ 8.00 | < 4.00 | ≥ 8.00 | 4.79 | ≥ 8.00 | C=CC(=O)Nc1cccc(N2C(=O)N(C)Cc3cnc(Nc4ccc(N5CCSCC5)cc4)nc32)c1 [Compound X005, N-(3-(3-methyl-2-oxo-7-(4-thiomorpholinophenylamino)-3,4-dihydropyrimido[4,5-d]pyrimidin-1(2H)-yl)phenyl)acrylamide] |
| 6.21 | ≥ 8.00 | 5.41 | 7.00 to 8.00 | 7.00 to 8.00 | < 4.00 | ≥ 8.00 | 4.55 | ≥ 8.00 | C=CC(=O)Nc1cccc(N2C(=O)N(C)Cc3cnc(Nc4ccc(N(C)C)cc4OC)nc32)c1 [C-EGF23, N-(3-(7-(4-(dimethylamino)-2-methoxyphenylamino)-3-methyl-2-oxo-3,4-dihydropyrimido[4,5-d]pyrimidin-1(2H)-yl)phenyl)acrylamide] |
| 6.74 | ≥ 8.00 | 6.58 | ≥ 8.00 | ≥ 8.00 | < 4.00 | ≥ 8.00 | < 4.00 | ≥ 8.00 | C=CC(=O)Nc1cccc(N2C(=O)N(C)Cc3cnc(Nc4ccc(N5CCC(N(C)C)CC5)cc4)nc32)c1 [Compound X004, N-(3-(7-(4-(4-(dimethylamino)piperidin-1-yl)phenylamino)-3-methyl-2-oxo-3,4-dihydropyrimido[4,5-d]pyrimidin-1(2H)-yl)phenyl)acrylamide] |
